Measured values: PubChem BioAssay AID1919015 (Molecular Pharmacology Branch, DTP, NCI, 2023)

System: OVCAR-5 complex spheroids with HUVEC/MSC, viability, % test/control
Experiment: Anticancer human tumor OVCAR-5 cell line growth inhibition [AhR];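 further: spheroids exposed to compounds for 7 days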;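 on viability, T/C: 100% = DMSO vehicle control wells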
Settings: for IC50: curve of first compound; for viability, T/C: stronger effect = lower value
Method in brief: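 Spheroids combined tumor cells with HUVEC endothelial cells and human MSCs as stroma. AhR antagonists were paired with standard or investigational drugs, each dosed in half-log steps down from near clinical Cmax, or from 10 microM where Cmax was unknown.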

[1] = second compound 0.1 µM, first compound 0.000949 µM
[2] = second compound 0.1 µM, first compound 0.003 µM
[3] = second compound 0.1 µM, first compound 0.00949 µM
[4] = second compound 0.1 µM, first compound 0.03 µM
[5] = second compound 0.1 µM, first compound 0.0949 µM
[6] = second compound 0.1 µM, first compound 0.3 µM
[7] = second compound 0.316 µM, first compound 0.000949 µM
[8] = second compound 0.316 µM, first compound 0.003 µM
[9] = second compound 0.316 µM, first compound 0.00949 µM
[10] = second compound 0.316 µM, first compound 0.03 µM
[11] = second compound 0.316 µM, first compound 0.0949 µM
[12] = second compound 0.316 µM, first compound 0.3 µM
[13] = second compound 1 µM, first compound 0.000949 µM
[14] = second compound 1 µM, first compound 0.003 µM
[15] = second compound 1 µM, first compound 0.00949 µM
[16] = second compound 1 µM, first compound 0.03 µM
[17] = second compound 1 µM, first compound 0.0949 µM
[18] = second compound 1 µM, first compound 0.3 µM
[19] = second compound 3.16 µM, first compound 0.000949 µM
[20] = second compound 3.16 µM, first compound 0.003 µM
[21] = second compound 3.16 µM, first compound 0.00949 µM
[22] = second compound 3.16 µM, first compound 0.03 µM
[23] = second compound 3.16 µM, first compound 0.0949 µM
[24] = second compound 3.16 µM, first compound 0.3 µM
[25] = second compound 10 µM, first compound 0.000949 µM
[26] = second compound 10 µM, first compound 0.003 µM
[27] = second compound 10 µM, first compound 0.00949 µM
[28] = second compound 10 µM, first compound 0.03 µM
[29] = second compound 10 µM, first compound 0.0949 µM
[30] = second compound 10 µM, first compound 0.3 µM

Q: For `CC(C)CC(NC(=O)C(Cc1ccccc1)NC(=O)c1cnccn1)B(O)O` (stereo not given) + Cc1ccccc1N=Nc1ccc(NC(=O)c2ccnn2C)c(C)c1, which IC50 (second compound 0.1 µM) is on record?
A: The IC50 was 49.4 nM.

Q: And the IC50 (second compound 0.316 µM)?
A: The IC50 was 48.2 nM.

Q: And the IC50 (second compound 1 µM)?
A: The IC50 was 50 nM.

Q: And the IC50 (second compound 3.16 µM)?
A: The IC50 was 48.2 nM.

Q: And the IC50 (second compound 10 µM)?
A: Its IC50 is 55.4 nM.

Q: What about the viability, T/C [1] of the same compound?
A: The viability, T/C was 101%.

Q: And the viability, T/C [2]?
A: Its viability, T/C is 105%.

Q: And the viability, T/C [3]?
A: Its viability, T/C is 96.9%.

Q: And the viability, T/C [4]?
A: The viability, T/C was 69%.

Q: What about the viability, T/C [5] of the same compound?
A: The viability, T/C was 25%.

Q: What about the viability, T/C [6] of the same compound?
A: The viability, T/C was 19.3%.

Q: And the viability, T/C [7]?
A: Its viability, T/C is 104%.

Q: And the viability, T/C [8]?
A: Its viability, T/C is 108%.

Q: And the viability, T/C [9]?
A: Its viability, T/C is 98.7%.

Q: What about the viability, T/C [10] of the same compound?
A: The viability, T/C was 67.1%.

Q: What about the viability, T/C [11] of the same compound?
A: The viability, T/C was 25.7%.

Q: What about the viability, T/C [12] of the same compound?
A: Its viability, T/C is 17.6%.

Q: And the viability, T/C [13]?
A: The viability, T/C was 108%.

Q: What about the viability, T/C [14] of the same compound?
A: Its viability, T/C is 112%.

Q: What about the viability, T/C [15] of the same compound?
A: Its viability, T/C is 101%.

Q: What about the viability, T/C [16] of the same compound?
A: The viability, T/C was 69.4%.

Q: What about the viability, T/C [17] of the same compound?
A: The viability, T/C was 25.5%.

Q: What about the viability, T/C [18] of the same compound?
A: Its viability, T/C is 19.6%.

Q: What about the viability, T/C [19] of the same compound?
A: Its viability, T/C is 111%.

Q: What about the viability, T/C [20] of the same compound?
A: Its viability, T/C is 112%.

Q: What about the viability, T/C [21] of the same compound?
A: Its viability, T/C is 105%.

Q: And the viability, T/C [22]?
A: Its viability, T/C is 66.1%.

Q: What about the viability, T/C [23] of the same compound?
A: Its viability, T/C is 26.9%.

Q: What about the viability, T/C [24] of the same compound?
A: Its viability, T/C is 21.5%.

Q: And the viability, T/C [25]?
A: The viability, T/C was 98.9%.

Q: And the viability, T/C [26]?
A: Its viability, T/C is 105%.

Q: And the viability, T/C [27]?
A: Its viability, T/C is 93.6%.

Q: And the viability, T/C [28]?
A: Its viability, T/C is 73.2%.

Q: What about the viability, T/C [29] of the same compound?
A: Its viability, T/C is 29.3%.

Q: What about the viability, T/C [30] of the same compound?
A: The viability, T/C was 23.5%.

Q: What does the source list for `CCc1c2c(nc3ccc(O)cc13)-c1cc3c(c(=O)n1C2)COC(=O)[C@]3(O)CC` + Cc1ccccc1N=Nc1ccc(NC(=O)c2ccnn2C)c(C)c1?
A: IC50 (second compound 0.1 µM): 6.95 nM; IC50 (second compound 0.316 µM): 8.2 nM; IC50 (second compound 1 µM): 9.43 nM; IC50 (second compound 3.16 µM): 9.46 nM; IC50 (second compound 10 µM): 10.5 nM; viability, T/C [1]: 85.7%; viability, T/C [2]: 64.3%; viability, T/C [3]: 37.1%; viability, T/C [4]: 36.9%; viability, T/C [5]: 22.5%; viability, T/C [6]: 7.67%; viability, T/C [7]: 87.4%; viability, T/C [8]: 70.3%; viability, T/C [9]: 39.2%; viability, T/C [10]: 37%; viability, T/C [11]: 18.7%; viability, T/C [12]: 6.8%; viability, T/C [13]: 91.3%; viability, T/C [14]: 73.4%; viability, T/C [15]: 40.8%; viability, T/C [16]: 38.3%; viability, T/C [17]: 20.9%; viability, T/C [18]: 7.02%; viability, T/C [19]: 95.9%; viability, T/C [20]: 70.7%; viability, T/C [21]: 45.4%; viability, T/C [22]: 38.1%; viability, T/C [23]: 18.4%; viability, T/C [24]: 7.44%; viability, T/C [25]: 89.5%; viability, T/C [26]: 65.9%; viability, T/C [27]: 45.9%; viability, T/C [28]: 42.1%; viability, T/C [29]: 21.5%; viability, T/C [30]: 8.22%

Q: `COc1cc(Nc2ncc3c(n2)-c2ccc(Cl)cc2C(c2c(F)cccc2OC)=NC3)ccc1C(=O)O` + Cc1ccccc1N=Nc1ccc(NC(=O)c2ccnn2C)c(C)c1 was tested. Which IC50 (second compound 0.1 µM) did it give?
A: Its IC50 is 2340 nM.

Q: What about the IC50 (second compound 0.316 µM) of the same compound?
A: Its IC50 is 2970 nM.

Q: And the IC50 (second compound 1 µM)?
A: The IC50 was 4990 nM.

Q: And the IC50 (second compound 3.16 µM)?
A: Its IC50 is 6140 nM.

Q: What about the IC50 (second compound 10 µM) of the same compound?
A: The IC50 was 6340 nM.

Q: And the viability, T/C (second compound 0.1 µM, first compound 0.0316 µM)?
A: The viability, T/C was 89.5%.

Q: What about the viability, T/C (second compound 0.1 µM, first compound 0.1 µM) of the same compound?
A: The viability, T/C was 81.7%.

Q: And the viability, T/C (second compound 0.1 µM, first compound 0.316 µM)?
A: The viability, T/C was 60.2%.

Q: And the viability, T/C (second compound 0.1 µM, first compound 1 µM)?
A: Its viability, T/C is 57.2%.

Q: And the viability, T/C (second compound 0.1 µM, first compound 3.16 µM)?
A: Its viability, T/C is 50.3%.

Q: And the viability, T/C (second compound 0.1 µM, first compound 10 µM)?
A: The viability, T/C was 42%.

Q: What about the viability, T/C (second compound 0.316 µM, first compound 0.0316 µM) of the same compound?
A: Its viability, T/C is 89.4%.

Q: And the viability, T/C (second compound 0.316 µM, first compound 0.1 µM)?
A: Its viability, T/C is 86.8%.

Q: What about the viability, T/C (second compound 0.316 µM, first compound 0.316 µM) of the same compound?
A: The viability, T/C was 64.2%.

Q: What about the viability, T/C (second compound 0.316 µM, first compound 1 µM) of the same compound?
A: The viability, T/C was 59.5%.

Q: And the viability, T/C (second compound 0.316 µM, first compound 3.16 µM)?
A: Its viability, T/C is 52.3%.

Q: And the viability, T/C (second compound 0.316 µM, first compound 10 µM)?
A: Its viability, T/C is 41.7%.

Q: And the viability, T/C (second compound 1 µM, first compound 0.0316 µM)?
A: The viability, T/C was 91.2%.

Q: And the viability, T/C (second compound 1 µM, first compound 0.1 µM)?
A: Its viability, T/C is 87.8%.

Q: What about the viability, T/C (second compound 1 µM, first compound 0.316 µM) of the same compound?
A: The viability, T/C was 68.5%.

Q: And the viability, T/C (second compound 1 µM, first compound 1 µM)?
A: The viability, T/C was 64.4%.

Q: And the viability, T/C (second compound 1 µM, first compound 3.16 µM)?
A: The viability, T/C was 55.4%.

Q: What about the viability, T/C (second compound 1 µM, first compound 10 µM) of the same compound?
A: The viability, T/C was 43.7%.

Q: What about the viability, T/C (second compound 3.16 µM, first compound 0.0316 µM) of the same compound?
A: The viability, T/C was 97.6%.

Q: And the viability, T/C (second compound 3.16 µM, first compound 0.1 µM)?
A: Its viability, T/C is 91.3%.

Q: What about the viability, T/C (second compound 3.16 µM, first compound 0.316 µM) of the same compound?
A: The viability, T/C was 74.8%.

Q: What about the viability, T/C (second compound 3.16 µM, first compound 1 µM) of the same compound?
A: The viability, T/C was 68.1%.

Q: And the viability, T/C (second compound 3.16 µM, first compound 3.16 µM)?
A: Its viability, T/C is 54.5%.

Q: And the viability, T/C (second compound 3.16 µM, first compound 10 µM)?
A: The viability, T/C was 46.2%.

Q: And the viability, T/C (second compound 10 µM, first compound 0.0316 µM)?
A: Its viability, T/C is 93.3%.

Q: And the viability, T/C (second compound 10 µM, first compound 0.1 µM)?
A: The viability, T/C was 86.4%.

Q: What about the viability, T/C (second compound 10 µM, first compound 0.316 µM) of the same compound?
A: Its viability, T/C is 74.2%.

Q: What about the viability, T/C (second compound 10 µM, first compound 1 µM) of the same compound?
A: The viability, T/C was 67.2%.

Q: And the viability, T/C (second compound 10 µM, first compound 3.16 µM)?
A: The viability, T/C was 54.7%.

Q: What about the viability, T/C (second compound 10 µM, first compound 10 µM) of the same compound?
A: Its viability, T/C is 46.6%.
